{
  "source": "ChEMBL document CHEMBL3745631",
  "about": "“Discovery of highly potent and selective Bruton's tyrosine kinase inhibitors: Pyridazinone analogs with improved metabolic stability” (Bioorg Med Chem Lett, 2016)",
  "key": {"[1]": {"biological_target": "Receptor-type tyrosine-protein kinase FLT3 (Homo sapiens) (UniProt P36888)", "assay": "Inhibition of Flt3 (unknown origin) at 1 uM"}, "[2]": {"tested_on": "Salmonella typhimurium", "assay": "Genotoxicity in Salmonella typhimurium TA98 by Ames test in presence of S9 fraction", "assay_type": "toxicity, organism-based", "conditions": "salmonella enterica subsp. enterica serovar typhimurium"}, "[3]": {"biological_target": "Serine/threonine-protein kinase PLK3 (Homo sapiens) (UniProt Q9H4B4)", "assay": "Inhibition of PLK3 (unknown origin) at 1 uM"}, "[4]": {"biological_target": "Dual specificity protein kinase CLK1 (Homo sapiens) (UniProt P49759)", "assay": "Inhibition of CLK1 (unknown origin) at 1 uM"}, "[5]": {"biological_target": "Phosphorylase b kinase gamma catalytic chain, liver/testis isoform (Homo sapiens) (UniProt P15735)", "assay": "Inhibition of PhK gamma2 (unknown origin) at 1 uM"}, "[6]": {"biological_target": "Glycogen synthase kinase-3 beta (Homo sapiens) (UniProt P49841)", "assay": "Inhibition of GSK3 beta (unknown origin) at 1 uM"}, "[7]": {"biological_target": "Serine/threonine-protein kinase PAK 6 (Homo sapiens) (UniProt Q9NQU5)", "assay": "Inhibition of PAK6 (unknown origin) at 1 uM"}, "[8]": {"biological_target": "G protein-coupled receptor kinase 6 (Homo sapiens) (UniProt P43250)", "assay": "Inhibition of GRK6 (unknown origin) at 1 uM"}, "[9]": {"assay": "Oral bioavailability in dog at 5 mg/kg by LC-MS/MS analysis", "assay_type": "ADME, organism-based, Canis lupus familiaris", "conditions": "in vivo"}, "[10]": {"biological_target": "Ephrin type-A receptor 7 (Homo sapiens) (UniProt Q15375)", "assay": "Inhibition of EphA7 (unknown origin) at 1 uM"}, "[11]": {"biological_target": "Serine/threonine-protein kinase 26 (Homo sapiens) (UniProt Q9P289)", "assay": "Inhibition of MST4 (unknown origin) at 1 uM"}, "[12]": {"biological_target": "Vascular endothelial growth factor receptor 1 (Homo sapiens) (UniProt P17948)", "assay": "Inhibition of Flt1 (unknown origin) at 1 uM"}, "[13]": {"biological_target": "Protein kinase C eta type (Homo sapiens) (UniProt P24723)", "assay": "Inhibition of PKCeta (unknown origin) at 1 uM"}, "[14]": {"biological_target": "Tyrosine-protein kinase Fgr (Homo sapiens, UniProt P09769)", "assay": "Inhibition of FGR (unknown origin)"}, "[15]": {"biological_target": "Mitogen-activated protein kinase kinase kinase 9 (Homo sapiens) (UniProt P80192)", "assay": "Inhibition of MLK1 (unknown origin) at 1 uM"}, "[16]": {"biological_target": "Beta-adrenergic receptor kinase 1 (Homo sapiens) (UniProt P25098)", "assay": "Inhibition of GRK2 (unknown origin) at 1 uM"}, "[17]": {"tested_on": "Liver microsome", "assay": "Intrinsic clearance in human liver microsomes at 1 uM by LC-MS/MS analysis in presence of NADPH", "assay_type": "ADME"}, "[18]": {"biological_target": "Aurora kinase A (Homo sapiens) (UniProt O14965)", "sequence (O14965 whole entry)": "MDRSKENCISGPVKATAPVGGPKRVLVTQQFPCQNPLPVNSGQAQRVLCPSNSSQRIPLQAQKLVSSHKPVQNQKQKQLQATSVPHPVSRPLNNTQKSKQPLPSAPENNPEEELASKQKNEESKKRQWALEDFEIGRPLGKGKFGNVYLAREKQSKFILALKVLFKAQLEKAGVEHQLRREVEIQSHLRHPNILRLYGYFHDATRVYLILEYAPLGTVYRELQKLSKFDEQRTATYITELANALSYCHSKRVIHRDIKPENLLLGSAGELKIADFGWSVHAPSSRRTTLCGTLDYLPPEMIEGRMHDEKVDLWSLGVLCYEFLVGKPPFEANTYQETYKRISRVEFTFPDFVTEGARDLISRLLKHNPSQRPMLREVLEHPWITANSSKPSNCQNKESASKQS", "assay": "Inhibition of AuroraA (unknown origin) at 1 uM"}, "[19]": {"tested_on": "Salmonella typhimurium", "assay": "Genotoxicity in Salmonella typhimurium TA100 by Ames test in presence of S9 fraction", "assay_type": "toxicity, organism-based", "conditions": "salmonella enterica subsp. enterica serovar typhimurium"}, "[20]": {"biological_target": "Myosin light chain kinase, smooth muscle (Homo sapiens) (UniProt Q15746)", "assay": "Inhibition of MYLK(smMLCK) (unknown origin) at 1 uM"}, "[21]": {"biological_target": "High affinity nerve growth factor receptor (Homo sapiens) (UniProt P04629)", "sequence (P04629 33-796 limits assumed)": "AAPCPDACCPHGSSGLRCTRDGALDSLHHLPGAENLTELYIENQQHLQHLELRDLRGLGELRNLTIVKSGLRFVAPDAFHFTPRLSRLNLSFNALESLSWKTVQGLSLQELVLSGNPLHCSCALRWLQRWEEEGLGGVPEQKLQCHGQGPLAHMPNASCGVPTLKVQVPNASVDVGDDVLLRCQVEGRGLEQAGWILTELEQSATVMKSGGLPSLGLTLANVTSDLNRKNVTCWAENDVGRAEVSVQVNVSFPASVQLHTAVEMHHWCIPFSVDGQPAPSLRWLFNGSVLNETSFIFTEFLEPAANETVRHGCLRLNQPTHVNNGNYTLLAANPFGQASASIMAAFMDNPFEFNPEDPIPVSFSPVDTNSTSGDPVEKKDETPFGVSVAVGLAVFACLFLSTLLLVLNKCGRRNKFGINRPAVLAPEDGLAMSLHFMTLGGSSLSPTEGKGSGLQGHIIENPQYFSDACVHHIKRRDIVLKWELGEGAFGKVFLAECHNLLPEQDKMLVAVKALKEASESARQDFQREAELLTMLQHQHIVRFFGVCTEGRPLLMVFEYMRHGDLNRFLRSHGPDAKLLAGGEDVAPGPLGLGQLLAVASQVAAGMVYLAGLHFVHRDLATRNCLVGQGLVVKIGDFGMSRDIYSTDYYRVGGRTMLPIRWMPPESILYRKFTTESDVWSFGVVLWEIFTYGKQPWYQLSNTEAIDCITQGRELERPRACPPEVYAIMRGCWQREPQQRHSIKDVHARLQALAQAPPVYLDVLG", "assay": "Inhibition of TrkA (unknown origin) at 1 uM"}, "[22]": {"biological_target": "Homeodomain-interacting protein kinase 1 (Homo sapiens) (UniProt Q86Z02)", "assay": "Inhibition of HIPK1 (unknown origin) at 1 uM"}, "[23]": {"biological_target": "BDNF/NT-3 growth factors receptor (Homo sapiens) (UniProt Q16620)", "assay": "Inhibition of TrkB (unknown origin) at 1 uM"}, "[24]": {"biological_target": "Bone morphogenetic protein receptor type-1A (Homo sapiens) (UniProt P36894)", "assay": "Inhibition of BMPR1A (unknown origin) at 1 uM"}, "[25]": {"biological_target": "Serine/threonine-protein kinase PAK 1 (Homo sapiens) (UniProt Q13153)", "assay": "Inhibition of PAK1 (unknown origin) at 1 uM"}, "[26]": {"biological_target": "Dual specificity protein kinase CLK4 (Homo sapiens) (UniProt Q9HAZ1)", "assay": "Inhibition of CLK4 (unknown origin) at 1 uM"}, "[27]": {"biological_target": "cAMP-dependent protein kinase catalytic subunit PRKX (Homo sapiens) (UniProt P51817)", "assay": "Inhibition of PrKX (unknown origin) at 1 uM"}, "[28]": {"biological_target": "Serine/threonine-protein kinase D1 (PRKD1) (Homo sapiens) (UniProt Q15139)", "assay": "Inhibition of PKD1 (unknown origin) at 1 uM"}, "[29]": {"biological_target": "Serine/threonine-protein kinase MRCK alpha (Homo sapiens) (UniProt Q5VT25)", "assay": "Inhibition of MRCK alpha (unknown origin) at 1 uM"}, "[30]": {"biological_target": "Sphingosine kinase 1 (Homo sapiens) (UniProt Q9NYA1)", "assay": "Inhibition of SPHK1 (unknown origin) at 1 uM"}, "[31]": {"biological_target": "Serine/threonine-protein kinase Nek6 (Homo sapiens) (UniProt Q9HC98)", "assay": "Inhibition of NEK6 (unknown origin) at 1 uM"}, "[32]": {"biological_target": "Tyrosine-protein kinase CSK (Homo sapiens) (UniProt P41240)", "assay": "Inhibition of CSK (unknown origin) at 1 uM"}, "[33]": {"biological_target": "3-phosphoinositide-dependent protein kinase 1 (Homo sapiens) (UniProt O15530)", "assay": "Inhibition of PDK1 (unknown origin) at 1 uM by direct binding assay"}, "[34]": {"biological_target": "Serine/threonine-protein kinase Nek4 (Homo sapiens) (UniProt P51957)", "assay": "Inhibition of NEK4 (unknown origin) at 1 uM"}, "[35]": {"biological_target": "Tyrosine-protein kinase Yes (Homo sapiens) (UniProt P07947)", "sequence (P07947 2-543 limits assumed)": "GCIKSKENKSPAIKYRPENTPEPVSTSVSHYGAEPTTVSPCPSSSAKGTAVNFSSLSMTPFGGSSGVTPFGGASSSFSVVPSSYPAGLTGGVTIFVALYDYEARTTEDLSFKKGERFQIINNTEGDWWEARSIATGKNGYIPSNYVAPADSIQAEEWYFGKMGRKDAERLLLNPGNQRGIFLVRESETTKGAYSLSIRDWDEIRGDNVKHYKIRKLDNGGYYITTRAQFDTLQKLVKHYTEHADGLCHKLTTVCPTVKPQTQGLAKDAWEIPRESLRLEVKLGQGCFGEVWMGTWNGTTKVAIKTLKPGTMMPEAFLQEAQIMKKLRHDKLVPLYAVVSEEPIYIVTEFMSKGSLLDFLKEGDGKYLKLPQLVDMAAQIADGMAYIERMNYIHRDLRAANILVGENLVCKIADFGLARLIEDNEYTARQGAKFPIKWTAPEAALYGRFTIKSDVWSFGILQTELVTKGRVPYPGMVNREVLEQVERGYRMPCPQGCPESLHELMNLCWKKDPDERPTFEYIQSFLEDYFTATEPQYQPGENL", "assay": "Inhibition of Yes (unknown origin) at 1 uM"}, "[36]": {"biological_target": "Homeodomain-interacting protein kinase 2 (Homo sapiens) (UniProt Q9H2X6)", "assay": "Inhibition of HIPK2 (unknown origin) at 1 uM"}, "[37]": {"biological_target": "Death-associated protein kinase 1 (Homo sapiens) (UniProt P53355)", "sequence (P53355 whole entry, looked up)": "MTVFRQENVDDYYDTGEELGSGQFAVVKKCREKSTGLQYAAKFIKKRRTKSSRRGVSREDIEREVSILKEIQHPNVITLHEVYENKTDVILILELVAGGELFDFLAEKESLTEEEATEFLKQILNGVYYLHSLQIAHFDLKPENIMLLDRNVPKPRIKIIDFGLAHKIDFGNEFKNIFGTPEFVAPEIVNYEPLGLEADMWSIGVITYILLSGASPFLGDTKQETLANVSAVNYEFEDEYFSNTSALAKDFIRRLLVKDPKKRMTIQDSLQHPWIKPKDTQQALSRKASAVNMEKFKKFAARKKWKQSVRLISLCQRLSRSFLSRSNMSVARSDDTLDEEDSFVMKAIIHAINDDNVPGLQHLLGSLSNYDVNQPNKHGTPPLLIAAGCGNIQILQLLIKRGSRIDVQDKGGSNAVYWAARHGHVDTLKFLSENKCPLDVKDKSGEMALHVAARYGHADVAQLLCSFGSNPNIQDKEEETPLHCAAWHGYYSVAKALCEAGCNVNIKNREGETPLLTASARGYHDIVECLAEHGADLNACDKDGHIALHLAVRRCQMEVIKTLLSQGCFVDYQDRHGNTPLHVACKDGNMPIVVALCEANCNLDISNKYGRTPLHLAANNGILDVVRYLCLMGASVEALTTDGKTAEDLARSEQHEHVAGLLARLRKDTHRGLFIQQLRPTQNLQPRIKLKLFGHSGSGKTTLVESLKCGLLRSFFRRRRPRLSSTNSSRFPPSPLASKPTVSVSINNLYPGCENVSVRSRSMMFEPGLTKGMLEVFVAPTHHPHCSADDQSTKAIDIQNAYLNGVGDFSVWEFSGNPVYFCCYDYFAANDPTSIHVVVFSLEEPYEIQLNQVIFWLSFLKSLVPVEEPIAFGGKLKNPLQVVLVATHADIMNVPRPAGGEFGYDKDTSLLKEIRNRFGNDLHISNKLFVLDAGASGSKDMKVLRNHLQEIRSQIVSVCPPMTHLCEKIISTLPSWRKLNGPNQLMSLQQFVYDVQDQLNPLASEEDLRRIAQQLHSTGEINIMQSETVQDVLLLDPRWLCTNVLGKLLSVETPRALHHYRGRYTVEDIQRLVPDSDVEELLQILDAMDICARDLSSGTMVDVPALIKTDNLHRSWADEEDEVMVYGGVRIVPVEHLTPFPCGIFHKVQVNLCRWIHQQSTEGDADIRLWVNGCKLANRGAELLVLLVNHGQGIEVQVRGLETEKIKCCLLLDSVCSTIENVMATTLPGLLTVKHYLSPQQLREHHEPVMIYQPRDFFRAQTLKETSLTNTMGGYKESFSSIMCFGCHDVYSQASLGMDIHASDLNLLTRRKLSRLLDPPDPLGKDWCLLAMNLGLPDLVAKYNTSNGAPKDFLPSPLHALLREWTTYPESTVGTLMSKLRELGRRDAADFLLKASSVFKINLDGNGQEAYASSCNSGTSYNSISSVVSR", "assay": "Inhibition of DAPK1 (unknown origin) at 1 uM"}, "[38]": {"biological_target": "Eukaryotic elongation factor 2 kinase (Homo sapiens) (UniProt O00418)", "assay": "Inhibition of eEF-2K (unknown origin) at 1 uM"}, "[39]": {"biological_target": "Tyrosine-protein kinase Tec (Homo sapiens, UniProt P42680)", "assay": "Inhibition of TEC (unknown origin)"}, "[40]": {"biological_target": "Serine/threonine-protein kinase pim-1 (Homo sapiens) (UniProt P11309)", "sequence (P11309 whole entry, looked up)": "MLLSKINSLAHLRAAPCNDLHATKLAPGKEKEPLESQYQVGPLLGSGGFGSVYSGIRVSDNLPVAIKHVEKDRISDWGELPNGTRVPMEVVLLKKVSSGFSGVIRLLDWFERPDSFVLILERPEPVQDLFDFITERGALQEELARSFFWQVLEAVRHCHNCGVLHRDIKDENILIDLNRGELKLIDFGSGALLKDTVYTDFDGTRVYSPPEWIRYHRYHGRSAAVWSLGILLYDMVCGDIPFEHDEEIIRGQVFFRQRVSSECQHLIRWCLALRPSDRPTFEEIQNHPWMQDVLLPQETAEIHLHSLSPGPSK", "assay": "Inhibition of PIM1 (unknown origin) at 1 uM"}, "[41]": {"tested_on": "Monocyte", "assay": "Inhibition of IC-induced TNF-alpha release in human monocytes"}, "[42]": {"biological_target": "Serine/threonine-protein kinase Sgk3 (Homo sapiens) (UniProt Q96BR1)", "sequence (Q96BR1 whole entry)": "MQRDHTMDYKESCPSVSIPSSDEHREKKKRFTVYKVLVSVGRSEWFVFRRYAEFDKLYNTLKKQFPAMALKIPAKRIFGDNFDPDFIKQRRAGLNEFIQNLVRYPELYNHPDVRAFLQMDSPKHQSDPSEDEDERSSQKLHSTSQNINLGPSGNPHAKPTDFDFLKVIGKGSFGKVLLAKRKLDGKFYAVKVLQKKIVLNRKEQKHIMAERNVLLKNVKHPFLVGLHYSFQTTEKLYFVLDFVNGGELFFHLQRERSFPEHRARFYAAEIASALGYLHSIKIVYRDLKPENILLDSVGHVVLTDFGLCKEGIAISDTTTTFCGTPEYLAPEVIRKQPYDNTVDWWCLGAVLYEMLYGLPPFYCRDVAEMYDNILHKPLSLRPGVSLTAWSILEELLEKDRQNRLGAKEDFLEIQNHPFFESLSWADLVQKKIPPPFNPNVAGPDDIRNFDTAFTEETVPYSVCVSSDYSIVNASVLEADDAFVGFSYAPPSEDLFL", "assay": "Inhibition of SGK3 (unknown origin) at 1 uM"}, "[43]": {"biological_target": "Serine/threonine-protein kinase B-raf (Homo sapiens) (UniProt P15056)", "assay": "Inhibition of B-Raf (unknown origin) at 1 uM"}, "[44]": {"biological_target": "Serine/threonine-protein kinase Nek9 (Homo sapiens) (UniProt Q8TD19)", "sequence (Q8TD19 whole entry)": "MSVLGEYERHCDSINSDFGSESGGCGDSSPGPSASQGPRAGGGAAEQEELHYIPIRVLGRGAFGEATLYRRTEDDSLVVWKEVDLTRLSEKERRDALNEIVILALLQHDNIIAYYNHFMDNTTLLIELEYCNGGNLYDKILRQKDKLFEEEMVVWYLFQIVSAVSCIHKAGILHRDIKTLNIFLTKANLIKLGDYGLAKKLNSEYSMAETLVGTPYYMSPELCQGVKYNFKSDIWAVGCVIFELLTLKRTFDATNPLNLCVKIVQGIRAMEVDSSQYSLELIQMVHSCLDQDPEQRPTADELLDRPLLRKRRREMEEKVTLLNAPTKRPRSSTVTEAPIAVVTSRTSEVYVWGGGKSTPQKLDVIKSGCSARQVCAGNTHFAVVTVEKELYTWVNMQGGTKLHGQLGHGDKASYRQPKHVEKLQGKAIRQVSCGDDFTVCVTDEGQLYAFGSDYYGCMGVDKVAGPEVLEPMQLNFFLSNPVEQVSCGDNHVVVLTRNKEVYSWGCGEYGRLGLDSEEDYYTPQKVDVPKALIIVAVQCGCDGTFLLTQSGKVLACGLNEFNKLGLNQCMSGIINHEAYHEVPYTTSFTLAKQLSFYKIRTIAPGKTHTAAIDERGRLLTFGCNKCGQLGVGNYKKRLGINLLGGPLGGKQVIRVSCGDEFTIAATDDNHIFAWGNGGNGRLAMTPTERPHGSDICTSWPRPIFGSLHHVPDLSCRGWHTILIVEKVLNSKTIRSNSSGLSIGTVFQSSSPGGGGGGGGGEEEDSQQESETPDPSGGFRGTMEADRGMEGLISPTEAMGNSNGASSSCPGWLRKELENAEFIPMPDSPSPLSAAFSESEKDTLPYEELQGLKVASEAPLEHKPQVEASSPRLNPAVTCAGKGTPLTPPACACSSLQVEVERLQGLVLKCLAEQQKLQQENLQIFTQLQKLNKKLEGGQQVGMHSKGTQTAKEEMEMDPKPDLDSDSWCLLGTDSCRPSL", "assay": "Inhibition of NEK9 (unknown origin) at 1 uM"}, "[45]": {"biological_target": "SRSF protein kinase 1 (Homo sapiens) (UniProt Q96SB4)", "assay": "Inhibition of SRPK1 (unknown origin) at 1 uM"}},
  "data": [
    {"molecule": "Cc1c(-c2cc(Nc3cc4n(n3)CCN(C)C4)c(=O)[nH]n2)ccc(F)c1NC(=O)c1cc2ccccc2s1", "values": [
      {"measurement": "inhibition", "setting": "[1]", "value": 11.6, "unit": "%"},
      {"measurement": "Activity", "setting": "[2]", "value": "Non-toxic"},
      {"measurement": "inhibition", "setting": "[3]", "value": 14.1, "unit": "%"},
      {"measurement": "inhibition", "setting": "[4]", "value": 5, "unit": "%"},
      {"measurement": "inhibition", "setting": "[5]", "value": 1.8, "unit": "%"},
      {"measurement": "inhibition", "setting": "[6]", "value": 11.1, "unit": "%"},
      {"measurement": "inhibition", "setting": "[7]", "value": 1.8, "unit": "%"},
      {"measurement": "inhibition", "setting": "[8]", "value": 4.7, "unit": "%"},
      {"measurement": "bioavailability", "setting": "[9]", "value": 65, "unit": "%"},
      {"measurement": "inhibition", "setting": "[10]", "value": -2, "unit": "%"},
      {"measurement": "inhibition", "setting": "[11]", "value": 8.6, "unit": "%"},
      {"measurement": "inhibition", "setting": "[12]", "value": -0.7, "unit": "%"},
      {"measurement": "inhibition", "setting": "[13]", "value": -8, "unit": "%"},
      {"measurement": "IC50", "setting": "[14]", "value": 1030, "unit": "nM"},
      {"measurement": "inhibition", "setting": "[15]", "value": -7.5, "unit": "%"},
      {"measurement": "inhibition", "setting": "[16]", "value": 0.8, "unit": "%"},
      {"measurement": "CLH", "setting": "[17]", "value": 6, "unit": "mL/min/kg"},
      {"measurement": "inhibition", "setting": "[18]", "value": 1.1, "unit": "%"},
      {"measurement": "Activity", "setting": "[19]", "value": "Non-toxic"},
      {"measurement": "inhibition", "setting": "[20]", "value": -0.8, "unit": "%"},
      {"measurement": "inhibition", "setting": "[21]", "value": -8, "unit": "%"},
      {"measurement": "inhibition", "setting": "[22]", "value": 0.4, "unit": "%"},
      {"measurement": "inhibition", "setting": "[23]", "value": -3.6, "unit": "%"},
      {"measurement": "inhibition", "setting": "[24]", "value": -4.5, "unit": "%"},
      {"measurement": "inhibition", "setting": "[25]", "value": 3.4, "unit": "%"},
      {"measurement": "inhibition", "setting": "[26]", "value": 5.8, "unit": "%"},
      {"measurement": "inhibition", "setting": "[27]", "value": -9.9, "unit": "%"},
      {"measurement": "inhibition", "setting": "[28]", "value": 1.6, "unit": "%"},
      {"measurement": "inhibition", "setting": "[29]", "value": -4.5, "unit": "%"},
      {"measurement": "inhibition", "setting": "[30]", "value": 35.1, "unit": "%"},
      {"measurement": "inhibition", "setting": "[31]", "value": 5.3, "unit": "%"},
      {"measurement": "inhibition", "setting": "[32]", "value": 5.2, "unit": "%"},
      {"measurement": "inhibition", "setting": "[33]", "value": -8, "unit": "%"},
      {"measurement": "inhibition", "setting": "[34]", "value": 1, "unit": "%"},
      {"measurement": "inhibition", "setting": "[35]", "value": 20.8, "unit": "%"},
      {"measurement": "inhibition", "setting": "[36]", "value": 4.5, "unit": "%"},
      {"measurement": "inhibition", "setting": "[37]", "value": 0.1, "unit": "%"},
      {"measurement": "inhibition", "setting": "[38]", "value": 3, "unit": "%"},
      {"measurement": "IC50", "setting": "[39]", "value": 230, "unit": "nM"},
      {"measurement": "inhibition", "setting": "[40]", "value": 4.5, "unit": "%"},
      {"measurement": "EC50", "setting": "[41]", "value": 37, "unit": "nM"},
      {"measurement": "inhibition", "setting": "[42]", "value": -1.3, "unit": "%"},
      {"measurement": "inhibition", "setting": "[43]", "value": 0.6, "unit": "%"},
      {"measurement": "inhibition", "setting": "[44]", "value": -7.6, "unit": "%"},
      {"measurement": "inhibition", "setting": "[45]", "value": 0.6, "unit": "%"}
    ]}
  ]
}
